Laboratory results published in article PMC7288058, “Modulating the Properties of Fe(III) Macrocyclic MRI Contrast Agents by Appending Sulfonate or Hydroxyl Groups” (Molecules, 2020).
Where “and” joins values, the source holds several entries; their conditions need not be identical. Identical values can stand only once. Like-named read-outs stand apart in the source and are kept apart here.

How the values were obtained:
[1] = cited from earlier work; for relaxivity: 4.7 T printed for Fe(EDTA) only
[2] = parameters: method as in PMID 31725934; conditions: comparison complex, no titration described in this paper; cited from earlier work
[3] = parameters: method as in PMID 31725934; conditions: 1-octanol/water; cited from earlier work
[4] = tested on: Balb/c mice; parameters: method as in PMID 31725934; conditions: cited from earlier work
[5] = parameters: method as in PMID 31725934; conditions: 100 mM HCl, cited from earlier work
[6] = 'was reported', reference not given, cited from earlier work
[7] = tested on: Balb/c mice; test: Dynamic T1-weighted MRI in mice after tail vein injection (4.7 T); type: in vivo; conditions: healthy mouse, 0.05 mmol/kg, kidneys/blood, up to 45 min
Excerpt: The two new Fe(III) complexes, Fe(L1)(OH2) and […], and the Gd(III) agent, Gd(DOTA), were studied in Balb/c mice on a small animal 4.7-T MRI scanner upon tail vein injection of the agent (Figure S24, Supplementary Materials). […] Biodistribution and pharmacokinetic clearance of the complexes in mice were monitored by using dynamic MRI.
In vivo imaging studies with the Fe(III) complexes were studied on at 4.7 T Bruker preclinical MRI in mice (BABC/cJ, Jackson Laboratory) in accordance with approved Institutional Animal Care and Use Committee (IACUC) protocols. The samples with a concentration of 0.050, 0.100, and 0.200 mmol [Fe]/kg. The Fe(III) complex stock solutions were adjusted to pH 7.2 by addition of meglumine and were injected intravenously via tail vein. MR data were recorded continuously for up to 1 h. Distribution studies and clearance kinetics were studied by using MR data acquired over several time points for up to 1 h, and additionally at 4 h and 24 h. For comparison, The Food and Drug Administration (FDA)-approved MRI contrast agent gadopentetate dimeglumine (Gd(DTPA), Magnevist®) and gadoterate meglumine (Gd(DOTA), Dotarem®) were injected at 50.0 μmol [Gd]/kg into separate group of mice and imaged as above.

[8] = target: T1, human serum albumin (HSA) (Homo sapiens, UniProt P02768); test: Binding to human serum albumin by ultrafiltration / ICP-MS; type: in vitro ADME; conditions: 0.4 mM complex, HSA 4.5% (w/v) (0.7 mM), 20 mM HEPES pH 7.4, 100 mM NaCl, 37 °C, 20 min
T1 construct: Albumin from human serum (fatty acid free) was purchased from Sigma-Aldrich; purchased Sigma-Aldrich; host or cells: purified from human serum
Method: Binding of the Fe(III) complexes to human serum albumin (HSA) was studied by using ultrafiltration across a MW 5000 cutoff membrane. The solutions containing HEPES buffer (pH 7.4) and salt NaCl were incubated at 37 °C for 20 min. Solutions contained 0.4 mM Fe(III) complex and 4.5 % (w/v) HSA (0.7 mM). The binding percentages were measured by using ICP-MS to analyze the Fe concentration in the unbound complex solutions after HSA incubation (Table 1). The protein binding for Fe(L3)(OH2) was higher (75%) than for Fe(L1)(OH2) (37%) or Fe(L2) (11%).
The molecular weight of 66,435 Da was used to determine the molar concentrations of HSA. Fe(III) complex (0.400 mM) solutions were incubated with 4.5% (w/v) HSA in 0.100 M NaCl and 20.0 mM HEPES buffer (pH 7.4). All solutions were incubated at 37 °C for 20 min [42]. Aliquots (0.300 mL) were placed in ultra-centrifugal filter units with a 5-kDa membrane and centrifuged at 3500× g for 10 min. The filtrates were used to determine Fe concentration from digested unbound Fe(III) complexes by using ICP-MS.

T1 sequence (P02768 25-609): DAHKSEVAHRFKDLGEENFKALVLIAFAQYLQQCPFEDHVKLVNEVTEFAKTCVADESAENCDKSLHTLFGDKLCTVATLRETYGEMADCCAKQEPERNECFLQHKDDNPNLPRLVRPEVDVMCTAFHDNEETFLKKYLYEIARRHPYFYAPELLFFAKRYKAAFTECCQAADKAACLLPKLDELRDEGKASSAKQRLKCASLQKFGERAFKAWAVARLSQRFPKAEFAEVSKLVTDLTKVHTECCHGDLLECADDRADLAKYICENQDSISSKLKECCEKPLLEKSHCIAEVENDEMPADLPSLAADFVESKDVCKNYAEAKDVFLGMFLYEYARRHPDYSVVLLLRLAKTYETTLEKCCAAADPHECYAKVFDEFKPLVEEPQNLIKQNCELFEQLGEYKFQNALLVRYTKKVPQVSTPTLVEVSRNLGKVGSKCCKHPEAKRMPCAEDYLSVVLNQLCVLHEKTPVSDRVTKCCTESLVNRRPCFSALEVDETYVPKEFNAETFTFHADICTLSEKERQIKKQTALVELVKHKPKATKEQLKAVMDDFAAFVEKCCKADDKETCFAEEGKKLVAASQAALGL

## O=C([O-])CN(CCN(CC(=O)[O-])CC(=O)[O-])CCN(CC(=O)[O-])CC(=O)[O-].[Fe+3] [Fe(DTPA)]
[1]
  relaxivity: 0.51 mM⁻¹ s⁻¹

## O=C([O-])CN(CCN(CC(=O)[O-])CC(=O)[O-])CC(=O)[O-].[Fe+3] [Fe(EDTA)]
[1]
  relaxivity: 1.4 mM⁻¹ s⁻¹

## C[C@H]([O-])CN1CCN(Cc2ccccc2)CCN(C[C@H](C)O)CC1.O.[Fe+3] [Fe(L3)(OH2)]
[2]
  Log K1 (pKa2): 7.17 ± 0.01
[3]
  Log P: −0.13
[4]
  duration of enhanced kidney contrast: up to four hours
[5]; over 24 h
  dissociation in acidic solution: 14%
[5]; over 72 h
  dissociation in acidic solution: 38%
[6]; pH 3
  electrode potential (E1/2) vs. Ag/AgCl: 112 mV
  electrode potential (E1/2) vs. NHE: 400 mV
[6]; pH 7
  electrode potential (E1/2) vs. Ag/AgCl: −588 mV
  electrode potential (E1/2) vs. NHE: −300 mV
[1]; 4.7 T
  r2 4.7 T: 4.5 ± 1.1 mM⁻¹ s⁻¹
[1]; buffer, pH 7.4, 37 °C, 4.7 T
  r1 4.7 T: 2.2 mM⁻¹ s⁻¹ and 2.2 ± 0.30 mM⁻¹ s⁻¹
[1]; in HSA, 4.7 T
  r1 in HSA 4.7 T: 2.5 ± 0.10 mM⁻¹ s⁻¹
  r2 in HSA 4.7 T: 4.2 ± 0.70 mM⁻¹ s⁻¹
[7]
  T1-weighted contrast enhancement compared with other agents: much stronger than that of Fe(L1)(OH2) or Gd(DOTA)
[8]
  HSA Binding (%): 75% and 75.1 ± 3.7%

## CNC[C@H](O)[C@@H](O)[C@H](O)[C@H](O)CO.O=C([O-])CN1CCN(CC(=O)[O-])CCN(CC(=O)O)CCN(CC(=O)[O-])CC1.[Gd+3] [Gd(DOTA), gadoterate meglumine]
[1]; 4.7 T
  r1 4.7 T: 2.8 ± 0.10 mM⁻¹ s⁻¹
  r2 4.7 T: 3.7 ± 0.20 mM⁻¹ s⁻¹

## CNC[C@H](O)[C@@H](O)[C@H](O)[C@H](O)CO.CNC[C@H](O)[C@@H](O)[C@H](O)[C@H](O)CO.O=C([O-])CN(CCN(CC(=O)[O-])CC(=O)O)CCN(CC(=O)[O-])CC(=O)O.[Gd+3] [Gd(DTPA), gadopentetate dimeglumine]
[1]; 9.4 T
  r1 9.4 T: 2.5 mM⁻¹ s⁻¹
[1]; buffer, pH 7.4, 37 °C, 4.7 T
  r1 4.7 T: 3.1 mM⁻¹ s⁻¹
[1]; in HSA, 4.7 T
  r1 in HSA 4.7 T: 3.2 mM⁻¹ s⁻¹
